How the values were obtained:
[1] = no data for the cornea; cited from earlier work
Description: It may therefore bind to lectin-like proteins of the stromal extracellular matrix, reducing its bioavailability fur ...

[2] = system: Staphylococcus aureus ATCC29213; assay: Effectiveness of prophylaxis once the corneal MIC was achieved (inoculation after 16 days of drops); assay type: in vivo, New Zealand White rabbits; conditions: inoculation after 16 days of vancomycin 1.4% drops 5 times/day; 3 rabbits with titanium film implant
Description: Following bacterial inoculation, development of infection was assessed clinically with SLP and AS-OCT imaging.

[3] = Corneal and aqueous humour vancomycin quantification by LC-MS; assay type: in vivo, New Zealand White rabbits; conditions: for Vancomycin in the aqueous humour: rabbit; for Vancomycin in the aqueous humour / Corneal vancomycin concentration / Aqueous humour vancomycin concentration: LC-MS; for Corneal vancomycin concentration / Aqueous humour vancomycin concentration: after 4 days of vancomycin 1.4% drops 5 times/day; for Period of drop instillation required to achieve MIC in the cornea: vancomycin 1.4% drops five times a day
Description: Prior to starting the antibiotic regimen, the cornea of the right eye had complete epithelial debridement following application of 20% alcohol for 60 seconds, whereas the epithelium of the left cornea was not debrided.
Aqueous humour samples (120–150 μL) were extracted with three equivalents of methanol (Merck, Darmstadt, Germany). The samples were shaken for 5 min at 1200 rpm (20°C) and centrifuged for 10 min at 16,000 g (4°C). The supernatants were transferred to fresh tubes and dried in a vacuum concentrator. Cornea samples were cut and ground with a pestle while frozen. They were next homogenized on ice with 300 μL of 3:1 methanol/water with 0.1% formic acid (Sigma Aldrich, St. Louis, MO, USA) for 1 min. The homogenates were then spun down briefly on a capsule centrifuge and supernatants transferred to fresh tubes. The residues were homogenized and spun down a second time. The extracts were combined and centrifuged for 10 min at 16,000 g (4°C). The supernatants were transferred to fresh tubes and dried in a vacuum concentrator. Samples were reconstituted in water (Ultrapure water, Millipore purification unit) and centrifuged for 5 min at 16,000 g (10°C) before transferring to autosampler vials for LC-MS/MS analysis.
Chromatographic separation was performed on a Waters 2695 Separations Module (Milford, MA, USA) with a Thermo Scientific Hypersil Gold C18 column (Whaltham, MA, USA) (2.1 × 50 mm, 3 μm). The mobile phase was A: 0.1% formic acid in water and B: 0.1% formic acid in acetonitrile. The gradient profile was 2% B at 0 min, 25% B at 6 min, 90% B from 6.5 to 8.5 min and 2% B from 9 to 13 min. The flow rate was 0.3 ml/min. The autosampler and column heater temperatures were maintained at 10 and 30°C, respectively. Detection was performed by an AB Sciex API 2000 triple quadrupole mass spectrometer (Concord, Canada) with an electrospray ionization source operating in the positive ionization mode. The ion source voltage was set to 5 kV.

CN[C@H](CC(C)C)C(=O)N[C@H]1C(=O)N[C@@H](CC(N)=O)C(=O)N[C@H]2C(=O)N[C@H]3C(=O)N[C@H](C(=O)N[C@H](C(=O)O)c4cc(O)cc(O)c4-c4cc3ccc4O)[C@H](O)c3ccc(c(Cl)c3)Oc3cc2cc(c3O[C@@H]2O[C@H](CO)[C@@H](O)[C@H](O)[C@H]2O[C@H]2C[C@](C)(N)[C@H](O)[C@H](C)O2)Oc2ccc(cc2Cl)[C@H]1O [vancomycin]
Binding to proteins [1]: moderate | Rabbits showing evidence of corneal infection by day 2 post-inoculation [2]: 2 of the 3 | Vancomycin in the aqueous humour ([3]; after 2 days of vancomycin 1.4% drops 5 times/day): not detected | Corneal vancomycin concentration ([3]; with epithelial removal (right eye, 20% alcohol 60 seconds), 3 rabbits, p = 0.115): 2.57 ± 0.40 µg/mL | Aqueous humour vancomycin concentration ([3]; with epithelial removal, p = 0.063): 0.43 ± 0.15 µg/mL | Corneal vancomycin concentration ([3]; without epithelial removal (left eye), 3 rabbits without implant): 1.36 ± 0.45 µg/mL | Aqueous humour vancomycin concentration ([3]; without epithelial removal): 0.04 ± 0.005 µg/mL | Vancomycin in the aqueous humour ([3]; day 10 of vancomycin 1.4% drops 5 times/day): below the level of quantification | Vancomycin in the aqueous humour ([3]; day 16 of vancomycin 1.4% drops 5 times/day): below the level of quantification | Period of drop instillation required to achieve MIC in the cornea ([3]; 100% compliance, epithelium not debrided): 16 days | Period of drop instillation required to achieve MIC in the cornea ([3]; epithelium debrided): ≤ 4 days
